“And” between values parts separate entries of the source, which are not always exact repeats. Equal entries are not always repeated. Where two headings read alike, the source gives them in different places.
What was measured:
[1] = Pharmacokinetic attributes (no method given); details: in vivo
HepG2 cells = experiment: EC50 for HepG2 cells; assay type: cell-based; details: Homo sapiens
[2] = test system: WM5 and 4 resistant P. falciparum; experiment: microbe, parasite or virus in culture; assay type: cell-based, Plasmodium falciparum
Protocol: (§1) After 72 h incubation at 37°C each well was fixed at room temperature for 30 min with 50 μL of 0.25% glutaraldehyde (ProSciTech) diluted in PBS. Following centrifugation at 1200 rpm for 1 min, supernatants were discarded and parasites were stained with 50 μL of 5X SYBR Green (Invitrogen) diluted in PBS. 50,000 cells were counted by flow cytometry using a Cell Lab Quanta SC – MPL Flow Cytometer (Beckman Coulter) ([Bacon et al., 2007]). Growth was expressed as a percentage of the parasitemia obtained using a vehicle control. All samples were tested in triplicate. EC50 values were determined using GraphPad Prism.
The parent and resistant lines were then cloned by limiting dilution, the EC50 for each line was determined and genomic DNA was purified from clonal parasites (QIAGEN Blood and Tissue Kit).

3D7 parasite cultures = experiment: Time of drug killing; assay type: cell-based, Plasmodium falciparum; details: 80nM WM4, 40nM WM5, 5nM WM382, added to early rings
Protocol: 3D7 parasite cultures were synchronized using 5% sorbitol (Sigma) twice at 46 h intervals then again when the culture was a mix of late schizonts and early rings. […] The parasitemia of each culture was quantitated every 8 h for 48 h by collecting 50 μL samples for counting by flow cytometry (as previously described). The developmental stage of the parasites was confirmed at each time point by microscopic examination of Giemsa stained thin blood films. Media and compound were replaced at the 32 h time point.

[3] = molecular target: T1, recombinant PMX protein (rPMX) (Plasmodium falciparum, UniProt Q8IAS0); experiment: biochemical
Protocol: (§2) All wells were backfilled to 200 nL DMSO such that it remains constant across the assay plates (1% final). IC50 values were calculated by Dotmatics 5.3 and Spotfire 7.11.1 software using a nonlinear regression four-parameter fit analysis. The equation used is sigmoidal dose response (variable slope), Y = bottom + (top − bottom)/(1+10((logEC50 − X) × Hill Slope)). Compound Ki values were calculated from the IC50s using the Cheng-Prusoff equation, Ki = IC50/(1 + [S]/Km).
(§3) All compound potency assays were conducted in 20 μl total volume. For each assay, 10 μl of recombinant enzymes in respective assay buffers (Table) were dispensed into compound containing assay plates using a Multidrop Combi dispenser and allowed to incubate for 15 min. The reactions were started with a further 10 μl addition of FRET peptide substrates and reactions incubated at 37 °C for various times (Table).Samples were excited at 340 nm and fluorescence emission measured at 492 nm using an Envision fluorescence plate reader (Perkin-Elmer).

P. falciparum [4] = experiment: P. falciparum asexual blood-stage growth inhibition (LDH or SYBR Green flow cytometry); assay type: cell-based, Plasmodium falciparum
Protocol: For High Throughput Screening (HTS) of compounds we used the lactate dehydrogenase (LDH) assay to detect parasitemia ([Makler et al., 1993], [Oduola et al., 1997]) formatted in a 384 well assay using an Echo555 (Labcyte). The P. falciparum assay was conducted with minor modifications ([Gamo et al., 2010]). Briefly, an inoculum of parasitized red blood cells at 0.7% parasitemia and 2% hematocrit in RPMI-1640, 5% AlbuMAX, 2% d-sucrose, 0.3% glutamine and 150 μM hypoxanthine was used for the assay. Assay plates (Greiner #781098, 384 well, white, tissue culture treated) were prepared by dispensing 1 μl of compound from master plates at 20 μM (10% DMSO stock) into 9ul pre-dispensed growth media in each well. The parasite inoculum (30 μl) was dispensed into plates containing compounds using a Multidrop Combi dispenser (Thermo Scientific). Final assay volume was 40 μl and final compound concentration was 500 nM. The positive growth control was 0.25% DMSO and the negative growth control was 100 nM chloroquine. Plates were incubated at 37 °C for 72 h in an atmosphere of […]. Following 72 h growth, plates were sealed with parafilm and frozen at −80 °C overnight. Plates were thawed at room temperature for at least 4 h prior to LDH activity being measured. 45 μl of fresh LDH reaction mix (174 mM sodium l-lactate, 214 μM 3-acetyl pyridine adenine dinucleotide (APAD), 270 μM Nitro Blue tetrazolium chloride (NBT), 4.35 U ml-1 diaphorase, 0.7% Tween 20, 100 mM Tris-HCl pH 7.5) was dispensed into each well using a Multidrop Combi dispenser. Plates were shaken to ensure mixing and absorbance at 650 nm was measured in an EnVision (PerkinElmer) plate reader after 30 min of incubation at room temperature. Data were normalized to percent growth inhibition using positive and negative controls and analyzed using Dotmatics 5.3 and Spotfire 7.11.1 (Tibco) software.
All wells were backfilled with DMSO to 45 nL such that this remained constant (0.1% DMSO). The positive growth control was 0.1% DMSO and the negative growth control was 100 nM chloroquine. Parasite inoculum (40 μl) was dispensed into plates containing compounds as described above. All other culture and lactate dehydrogenase (LDH) reaction methods are as described previously ([Makler et al., 1993], [Oduola et al., 1997]).
as §1

[5] = molecular target: T1, recombinant PMX protein (rPMX)
Protocol: as §2, §3

P. berghei [6] = experiment: Peters' 4-day suppressive test for P. berghei infection in mice; assay type: in vivo, Plasmodium berghei; details: intraperitoneal, 20 mpk q.d., 4 days, Swiss mice
Protocol: For results shown in Figure 1 A male Swiss mice were infected intraperitoneally (IP) with 1 × 10^6 P. berghei ANKA-parasitised red blood cells withdrawn from a previously infected donor mouse. Test compounds were prepared in a vehicle consisting of 10% DMSO/90% Solutol (5% Solutol® HS-15 in 0.9% saline). […] Peripheral blood samples were taken 24 h after administration of the last dose, and parasitemia was measured by microscopic analysis of Giemsa-stained blood smears. Parasitemia values were averages for 6 mice per group and are expressed as percent parasitemia. For results shown in Figure 4A ‘donor’ female Swiss mice were infected intraperitoneally (IP) with blood stage P. berghei parasites constitutively expressing GFP (P. berghei ANKA GFPcon 259cl2 ([Franke-Fayard et al., 2004]). Three days later, groups of 4 ‘acceptor’ Swiss mice were infected intravenously (IV) with 1 × 10^7 parasitised erythrocytes from the ‘donor’ mice. Two h post infection, experimental mice (4 per cohort) were left untreated (control mice) or treated orally on 4 consecutive days with test drugs formulated in 20% DMSO/60% PG/20% water (v/v/v) or chloroquine dissolved in water. […] Peripheral blood samples were taken 12 h after the last treatment, and parasitemia measured by flow cytometry (proportion of GFP-positive cells in 100,000 recorded events using FACSCalibur, BD) and microscopic analysis of Giemsa-stained blood smears. Parasitemia values were averages for 4 mice per group and are expressed as percent parasitemia.

[7] = molecular target: T2, P. falciparum aspartic protease, PMV (Plasmodium falciparum, UniProt Q8I6Z5); experiment: Peptide cleavage (FRET) assay, PMV; assay type: biochemical; details: calculated from IC50 with Cheng-Prusoff equation
T2 construct: made in house

[8] = test system: protein processing by PMIX and PMX in P. falciparum; experiment: Processing inhibition assays (immunoblot of merozoites and supernatants); assay type: cell-based, Plasmodium falciparum; details: E64 10 μM, WM4 40 nM, WM382 2.5 nM
Protocol: Processing inhibition assays were performed as previously described ([Boyle et al., 2010]). Synchronized late trophozoite/early schizont cultures to which protease inhibitors had already been added, were passed over LD magnetic columns (Miltenyi Biotech) to remove uninfected erythrocytes. The cysteine protease inhibitor E64 (Sigma) was used at 10 μM. […] A control dish without any protease inhibitor was also included. Parasites were eluted from columns with complete RPMI 1640 culture medium to which the appropriate inhibitor at the same concentration had been added. Eluted parasites were adjusted to 5x10^6 schizonts/mL and 150 ul added per well of a 96-well flat-bottomed culture dish. […] Parasites from each condition were spun at 10000 g/10 min so that merozoite and supernatant fractions could be separately collected. Proteins from both fractions were extracted with Reducing sample buffer and separated on 4%–12% or 3%–8% acrylamide gels (NuPAGE, Invitrogen).

P. falciparum 3D7 = experiment: Ring stage survival assay for artesunate; assay type: cell-based, Plasmodium falciparum; details: 3D7, 700 nM artesunate 6 h, then 66 h drug-free
Protocol: The method for determining sensitivity to artesunate was as described ([Kite et al., 2016]). Parasites were synchronized twice with 5% sorbitol at 46 h intervals and again when they were a mixture of schizonts and early rings. Triplicate 1 mL cultures were set up in 24 well plates (Falcon) at 0.5% parasitemia and 2% hematocrit with either 700 nM artesunate (Sigma) or 0.1% DMSO vehicle control. Following 6 h incubation, the cells were washed and incubated in drug-free media for a further 66 h. A 50 μL sample of each culture was fixed with 0.25% glutaraldehyde and stained with 5X SYBR then parasitemia was determined by flow cytometry. Percentage survival is parasitemia relative to vehicle treated parasites.
The percentage survival of all parasite lines was high in our experiments (∼5% for 3D7) was high compared to that described previously ([Kite et al., 2016]) most likely because we used a FACS based method was used for detection and quantitation. However, we were clearly able to distinguish the resistant CAM3 R539T line from the sensitive CAM3 Rev and 3D7 parasite lines.

Dd2 parasites = assay type: cell-based, Plasmodium falciparum; details: inocula 10^5 to 10^9 parasites, up to 90 days
Excerpt: Each experiment was monitored by weekly microscopic examination of thin blood films. Media and compound were replaced three times each week.

P. falciparum [9] = experiment: P. falciparum humanized NOD-scid IL2R_null mouse model; details: chloroquine 50 mpk oral q.d. 4 days from day 3
Protocol: Compounds were tested in the murine P. falciparum SCID model ([Angulo-Barturen et al., 2008]). […] The mice were intravenously infected with 2 × 10^7 P. falciparum Pf3D7-infected erythrocytes (day 0) ([Angulo-Barturen et al., 2008]). On day 3 after infection, mice were randomly allocated to treatments that were administered once a day for 4 consecutive days (n = 3 mice) by oral gavage at 10 mL/kg. Parasitemia was measured by microscopy. Chimerism was monitored by flow cytometry using anti-murine erythrocyte TER119 monoclonal antibody (PharMingen, San Diego, CA) and SYTO-16 and then analyzed by flow cytometry in serial 2 μL blood samples taken every 24 h until assay completion.

P. berghei [10] = experiment: Dose ranging test for P. berghei infection in mice; assay type: in vivo, Plasmodium berghei; details: chloroquine 10 mpk oral q.d. 4 days
Protocol: Control mice were treated orally with chloroquine for 4 days under q.d. dosing regimen at 10 mpk/day. From day 2 to 30 post infection, parasitemia was measured daily by flow cytometry and microscopy, as described above. Survival of animals to day 30 post infection, with no detectable parasites in the peripheral blood, were considered to be cured (i.e., 100% efficacy).

[11] = 3D7 parasite line, asexual blood stage, read-out: EC50, inhibition of P. falciparum growth

T1 sequence (Q8IAS0 222-573): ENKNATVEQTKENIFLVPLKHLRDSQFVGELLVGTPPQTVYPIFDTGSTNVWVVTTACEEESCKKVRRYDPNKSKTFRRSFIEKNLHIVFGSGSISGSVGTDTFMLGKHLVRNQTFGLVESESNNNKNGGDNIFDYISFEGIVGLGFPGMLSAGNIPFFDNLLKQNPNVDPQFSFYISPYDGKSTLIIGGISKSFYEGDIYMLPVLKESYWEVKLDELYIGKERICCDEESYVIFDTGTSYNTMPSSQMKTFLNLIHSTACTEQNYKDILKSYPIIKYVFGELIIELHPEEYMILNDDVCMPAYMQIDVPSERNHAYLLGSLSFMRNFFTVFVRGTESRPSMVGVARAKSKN
T2 sequence (Q8I6Z5 whole entry): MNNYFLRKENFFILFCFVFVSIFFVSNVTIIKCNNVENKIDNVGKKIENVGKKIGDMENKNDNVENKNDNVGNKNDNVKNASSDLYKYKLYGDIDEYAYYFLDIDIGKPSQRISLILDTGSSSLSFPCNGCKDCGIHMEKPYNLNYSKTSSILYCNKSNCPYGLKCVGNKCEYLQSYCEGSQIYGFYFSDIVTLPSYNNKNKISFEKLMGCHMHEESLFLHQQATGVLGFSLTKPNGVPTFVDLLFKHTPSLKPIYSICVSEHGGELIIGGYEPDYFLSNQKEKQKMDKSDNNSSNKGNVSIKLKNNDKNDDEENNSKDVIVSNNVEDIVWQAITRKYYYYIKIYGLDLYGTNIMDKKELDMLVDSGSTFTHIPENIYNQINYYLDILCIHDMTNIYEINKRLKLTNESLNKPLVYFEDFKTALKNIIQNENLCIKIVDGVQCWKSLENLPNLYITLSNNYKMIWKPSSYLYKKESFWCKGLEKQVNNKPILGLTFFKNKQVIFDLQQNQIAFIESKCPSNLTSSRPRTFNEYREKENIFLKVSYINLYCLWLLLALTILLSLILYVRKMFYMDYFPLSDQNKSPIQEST

In the case of `CC(C)CC(c1ccc(C(F)(F)F)c(C(=O)N2Cc3nccnc3C2)c1)N1C(=N)NC(CC2CC2)(c2ccccc2)CC1=O` (racemic) [WM5], the pharmacokinetic attributes [1] is reported as “did not have desirable pharmacokinetic attributes”, the EC50 (HepG2 cells) is reported as 17900 ± 2000 nM and the EC50 ([2]; Plasmodium falciparum, 3D7, read-out: EC50, 3D7, parental line 3D7) is reported as 13.5 ± 0.78 nM. For the same compound, the EC50 ([2]; Plasmodium falciparum, 3D7, read-out: EC50, 3D7-WM4.1, WM4-resistant line 3D7-WM4.1) was 202 ± 7.23 nM, the EC50 ([2]; Plasmodium falciparum, 3D7, read-out: EC50, 3D7-WM4.2, WM4-resistant line 3D7-WM4.2, Figure S1) was 144 ± 46.6 nM and the EC50 ([2]; Plasmodium falciparum, 3D7, read-out: EC50, 3D7-WM5.1, WM5-resistant line 3D7-WM5.1) was 172 ± 6.95 nM. For the same compound, the EC50 ([2]; Plasmodium falciparum, 3D7, read-out: EC50, 3D7-WM5.2, WM5-resistant line 3D7-WM5.2, Figure S1) was 118 ± 4.7 nM, the EC50 ([2]; Plasmodium falciparum, 3D7, read-out: EC50, 3D7-WM5.3, WM5-resistant line 3D7-WM5.3, Figure S1) was 51.8 ± 19.7 nM and the “fold resistance of 3D7-WM5.1 compared with 3D7” value ([2]; printed as X in Figure 1E) was 13 fold. For the same compound, the EC50 ([2]; read-out: EC50, 3D7-WM4.1, WM4-resistant line 3D7-WM4.1) was 107 ± 2.2 nM, the EC50 ([2]; read-out: EC50, 3D7-WM5.1, WM5-resistant line 3D7-WM5.1) was 172 nM and 117 nM and the EC50 ([2]; read-out: EC50, 3D7, parental line 3D7) was 11.1 ± 3.7 nM. For the same compound, the “stage of arrest of blood-stage development” value (3D7 parasite cultures) was “arrested at late schizont stage”, the IC50 [3] was 3.02 nM and the Ki [3] was 1.9 ± 0.6 nM. For the same compound, the EC50 (P. falciparum [4]; Plasmodium falciparum, Figure 2C, mean ± SD, three experiments, read-out: EC50 P. falciparum) was 9.3 ± 2.7 nM, the “Fold Selectivity PMX v PMV” value [5] was 1,755 fold and the “in vivo activity against P. berghei infection” value (P. berghei [6]) was “partial efficacy”. For the same compound, the Ki [7] was 3300 ± 540 nM.
For `CC(C)C[C@H](NC(=O)[C@H]1O[C@@H]1C(=O)O)C(=O)NCCCCN=C(N)N` [E64, reference compound], the “AMA1 processing in merozoites” value [8] was “not affected”, the ASP processing [8] was “ASP was processed” and the MTRAP processing [8] was “did not inhibit its processing”. For the same compound, the “PMIX processing in parasites” value [8] was “not inhibited”, the RAP1 processing [8] was “Two processed forms of RAP1 (p82 and p69) are detected” and the RON3 processing [8] was “did not block processing”. The “Rh1 processed fragments, release into the supernatant” value [8] was “the processed fragments were released into the supernatant”.
`CC(NC(=O)c1cccc(C(c2ccccc2)N2C(=N)NC(C)(C(C)C)CC2=O)c1)c1ccccc1` (stereo not shown) [R-WM4] showed an EC50 (P. falciparum [4]; [11]) of 4.6 nM.
Compound `CC(C)CC(c1ccc(C(F)(F)F)c(C(=O)N2Cc3nccnc3C2)c1)N1C(=N)NC(CC2CC2)(c2ccccc2)CC1=O` (stereo not shown) [R-WM5] has an EC50 (P. falciparum [4]; [11]) of 10 nM.
`CC(NC(=O)c1cccc(C(c2ccccc2)N2C(=N)NC(C)(C(C)C)CC2=O)c1)c1ccccc1` (stereo not shown) [S-WM4] gave an EC50 (P. falciparum [4]; [11]) of 440 ± 113 nM.
Compound `CC(C)CC(c1ccc(C(F)(F)F)c(C(=O)N2Cc3nccnc3C2)c1)N1C(=N)NC(CC2CC2)(c2ccccc2)CC1=O` (stereo not shown) [S-WM5] has an EC50 (P. falciparum [4]; [11]) of 688 ± 218 nM.
In the case of `C[C@H]1[C@H](OC(=O)CCC(=O)O)O[C@@H]2O[C@@]3(C)CC[C@H]4[C@H](C)CC[C@@H]1[C@@]24OO3` [artesunate], the “percentage survival, ring stage survival assay” value (P. falciparum 3D7) is reported as roughly 5%.
In the case of `O=C1C(O)=C([C@H]2CC[C@H](c3ccc(Cl)cc3)CC2)C(=O)c2ccccc21` [atovaquone], the “selection of resistant parasites, time to resistance” value (Dd2 parasites) is reported as “Parasites resistant to atovaquone were selected”.
For `CCN(CC)CCCC(C)Nc1ccnc2cc(Cl)ccc12` (stereo not shown) [chloroquine, reference compound], the “day by which mice were cleared of parasitemia” value (P. falciparum [9]) was no more than 7 days and the “day post-infection on which parasites were detectable” value (P. berghei [10]) was 10 days.

From article PMC7146544, “Dual Plasmepsin-Targeting Antimalarial Agents Disrupt Multiple Stages of the Malaria Parasite Life Cycle” (Cell Host & Microbe, 2020)
